Results reported in patent publication US20050271736A1, “Pyrithione compound and microcapsule using the same” (Fuji Photo Film Co., Ltd., priority 2004, published 2005).

Assay: Measurement of photo-decomposability of the compound in ethyl acetate solution (absorbance before/after UV exposure)
Format: physicochemical
Conditions: 5.0×10^−5 mol/L in ethyl acetate
Procedure: The absorbance thereof was measured with an absorption photometer (Multichannel Detector PMA 11, trade name, manufactured by Hamamatsu Photonics K.K.). […] After this solution was exposed for 20 seconds by means of a fluorescent lamp of 23 watts having the central wavelength of light emission at 365 nm, which was placed at a distance of 45 mm, the absorbance thereof was measured in the same manner as the above.

absorbance at 370 nm before exposure (1-cm quartz cell, before exposure): 0.64 | absorbance at 370 nm after exposure (exposed 20 seconds, 23 W fluorescent lamp, central wavelength 365 nm, distance 45 mm): 0.15
SMILES: OCCCCCCOc1cccn(OCCCCCCO)c1=S [I-1]
